Results: patent publication US5464739A, “Composition method for determining the presence of leukocyte cells, esterase or protease in a test sample” (Bayer Corporation, priority 1994, dated 1995)

Assays:
[1] = biological target: T1, human leukocyte elastase (HLE) (Homo sapiens, UniProt P08246); experiment: Dry phase test strip assay of chromogenic substrates for HLE (reflectance at 557 nm, K/S); assay type: biochemical; conditions: for K/S: response at 120 seconds; for Change in K/S: 120 seconds; for Response to HLE / hydrolysis by HLE, in words: test strip, NDNSA
T1 sequence (P08246 30-247): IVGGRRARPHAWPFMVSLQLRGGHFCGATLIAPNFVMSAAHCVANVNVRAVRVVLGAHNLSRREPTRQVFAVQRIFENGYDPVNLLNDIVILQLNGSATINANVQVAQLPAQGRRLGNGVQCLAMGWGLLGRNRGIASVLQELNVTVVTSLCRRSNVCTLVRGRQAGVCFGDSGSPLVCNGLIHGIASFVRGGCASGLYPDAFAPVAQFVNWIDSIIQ
Experimental: In accordance with the method of the present invention, a test device was prepared which was sensitive to the presence of leukocyte esterase. An aqueous solution including 0.8M borate-sodium hydroxide buffer (pH 8.8) and 1% by weight of polyvinylpyrrolidone (PVP K-60 available from ISP Corp., Wayne, N.J.) first was prepared. A 4 inch wide strip of WHATMAN 3MM filter paper, available commercially from Whatman, Ltd., Maidenhead, Kent, U.K., then was impregnated with the aqueous solution. The impregnated filter paper strip next was dried in an Air Foil paper dryer, available from Thermoelectron, Kaukauna, Wis., at 79° C. to 121° C. for about 5 to 6 minutes.
The dried, impregnated filter paper strip then was impregnated a second time by immersion into an acetone solution containing 1.1 mM of a lactate ester of structural formula […], 0.7 mM 4-diazo-3-hydroxy-7-nitro-1-naphthylsulfonate (i.e., the compound of structural formula (XX), also named 6-nitro-1,2-naphthoquinone diazide), 1.5% (v/v) 1-decanol and 3% (v/v) dimethylsulfoxide. After the second impregnation, the filter paper strip was dried at 60° C. for about 5 to 6 minutes to provide an off-white filter paper strip. The dried, twice-impregnated filter paper pad is secured to an opaque or transparent hydrophobic plastic handle with double-sided adhesive tape. The dried and twice-impregnated filter paper strip was next cut to an appropriate size for a test strip assay, such as a pad having dimensions of about 0.2 in (inch) (0.5 cm) by about 0.2 in (0.5 cm).
Individual test strips each incorporating one chromogenic lactate ester having a structural formula (X) through (XIV) and a diazonium salt coupling agent were quickly immersed into standardized solutions containing 0, 19 or 48 ng/mL HLE, then removed. Approximately two minutes after contacting a standardized HLE solution, the reflectance of the test pad of the test strip was measured at 557 nm (nanometers) on a CLINITEK® 10 clinical reflectance meter, available from Miles, Inc., Elkhart, Ind.
The reflectance, R, as taken from the reflectance scale of zero to one, was incorporated into the Kubelka-Munk function:
wherein K is the absorption coefficient, S is the scattering coefficient and R is reflectance. The reflectance values determined at 557 nm were used to calculate the K/S values. The K/S values are proportional to test strip color, therefore the greater the K/S value, the greater the degree and intensity of the color transition of the test strip and the greater the concentration of HLE in the test strip.
Dry phase test strips incorporating the lactate ester of structural formula (X), and prepared as discussed above, were compared to dry phase test strips incorporating the corresponding alanine derivative (I) for an ability to detect HLE in urine. A comparison also was made between the diazonium salt coupling agents DNSA (XX) and NDNSA (XXI). The test strips were otherwise identical. The results tabulated below were obtained after quickly immersing the individual reagent strips into standardized HLE solutions. Two minutes after immersion, the test strips were examined for a chromogenic response as described above.

[2] = biological target: T1, human leukocyte elastase (HLE); experiment: as above; assay type: biochemical; conditions: for K/S: response at 120 seconds; for Change in K/S: between 0 and 19 ng/mL HLE; for Change in K/S / Response between 200 and 500 ng/mL HLE, in words: 120 seconds; for ΔK/S (557 mm) at 120 seconds: NDNSA (XXI); for Response between 200 and 500 ng/mL HLE, in words: test strip, NDNSA
[3] = HLE 0 ng/mL, diazonium salt NDNSA, 557 nm
[4] = HLE 19 ng/mL, diazonium salt NDNSA, 557 nm
[5] = HLE 48 ng/mL, diazonium salt NDNSA, 557 nm
[6] = between 0 and 19 ng/mL HLE, diazonium salt NDNSA
[7] = between 0 and 48 ng/mL HLE, diazonium salt NDNSA
[8] = change between 0 and 5 ng/mL HLE
[9] = change between 0 and 10 ng/mL HLE
[10] = change between 0 and 20 ng/mL HLE
[11] = change between 0 and 100 ng/mL HLE
[12] = change between 0 and 200 ng/mL HLE
[13] = change between 0 and 500 ng/mL HLE
[14] = Example 10, HLE 19 ng/mL, diazonium salt not given (as in Example 6)
[15] = Example 10, diazonium salt not stated
[16] = Example 10, HLE 0 ng/mL, diazonium salt not given (as in Example 6)

K/S [1, 3] | K/S [1, 4] | K/S [1, 5] | Change in K/S [1, 6] | Change in K/S [1, 7] | SMILES | further results
0.044 | 0.308 | – | 0.264 | – | Cc1ccc(S(=O)(=O)N[C@@H](C)C(=O)Oc2c[nH]c(-c3ccccc3)c2)cc1 [Tosyl--Ala--OPP, 3-hydroxy-5-phenyl-pyrrole-N-tosyl-L-alanine ester] | K/S ([2]; HLE 0 ng/mL, diazonium salt DNSA, 557 nm): 0.021; K/S ([2]; HLE 19 ng/mL, diazonium salt DNSA, 557 nm): 0.146; Change in K/S ([2]; diazonium salt DNSA): 0.125
0.050 | 0.363 | 0.881 | 0.313 | 0.831 | CCCS(=O)(=O)N[C@@H](C)C(=O)Oc1c[nH]c(-c2ccccc2)c1 [n-Pr--SO2 --Ala--OPP] | ΔK/S (557 mm) at 120 seconds [2, 8]: 0.065; ΔK/S (557 mm) at 120 seconds [2, 9]: 0.165; ΔK/S (557 mm) at 120 seconds [2, 10]: 0.353; ΔK/S (557 mm) at 120 seconds [2, 11]: 1.474; ΔK/S (557 mm) at 120 seconds [2, 12]: 1.797; ΔK/S (557 mm) at 120 seconds [2, 13]: 1.628; Response between 200 and 500 ng/mL HLE, in words [2]: no difference in response

Second part, the compound before the results:

SMILES | K/S [1, 3] | K/S [1, 4] | K/S [1, 5] | Change in K/S [1, 6] | Change in K/S [1, 7] | further results
COC(=O)CCS(=O)(=O)N[C@@H](C)C(=O)Oc1c[nH]c(-c2ccccc2)c1 | 0.074 | 0.435 | 0.976 | 0.361 | 0.902 | –
C[C@H](OC(=O)c1ccccc1)C(=O)Oc1c[nH]c(-c2ccccc2)c1 [Ph--CO--R--OPP, R = Lactate (XI), PhCO-(L)-Lac--OPP] | 0.041 | 0.106 | – | 0.065 | – | –
COC(=O)CCS(=O)(=O)O[C@@H](C)C(=O)Oc1c[nH]c(-c2ccccc2)c1 [MeOSucc--SO2 -(L)-Lac--OPP] | 0.177 | 0.514 | 0.916 | 0.337 | 0.739 | Response to HLE / hydrolysis by HLE, in words [1]: sufficient to assay for HLE
Cc1ccc(S(=O)(=O)O[C@@H](C)C(=O)Oc2c[nH]c(-c3ccccc3)c2)cc1 [Tosyl-(L)--Lac--OPP, 3-(O-tosyl-(L)-lactoyl)-5-phenylpyrrole] | 0.046 | 0.348 | – | 0.302 | – | Response to HLE / hydrolysis by HLE, in words [1]: readily hydrolyzed by the enzyme HLE
C[C@H](NC(=O)c1ccccc1)C(=O)Oc1c[nH]c(-c2ccccc2)c1 [Ph--CO--R--OPP, R = Alanine] | 0.038 | 0.039 | – | 0.001 | – | –
C[C@H](OS(=O)(=O)c1cccs1)C(=O)Oc1c[nH]c(-c2ccccc2)c1 [2-Thiophene-SO2-(L)-Lac-OPP] | – | – | – | – | – | K/S [2, 14]: 0.385; Change in K/S [2, 15]: 0.332; K/S [1, 16]: 0.03
CCCS(=O)(=O)O[C@@H](C)C(=O)Oc1c[nH]c(-c2ccccc2)c1 [n-Pr--SO2 --Lac--OPP, nPr--SO2 -(L)-Lac--OPP] | 0.100 | 0.498 | 1.049 | 0.398 | 0.949 | ΔK/S (557 mm) at 120 seconds [2, 8]: 0.108; ΔK/S (557 mm) at 120 seconds [2, 9]: 0.257; ΔK/S (557 mm) at 120 seconds [2, 10]: 0.533; ΔK/S (557 mm) at 120 seconds [2, 11]: 1.462; ΔK/S (557 mm) at 120 seconds [2, 12]: 1.693; ΔK/S (557 mm) at 120 seconds [2, 13]: 1.915; Response between 200 and 500 ng/mL HLE, in words [2]: continues to increase
C[C@H](NS(=O)(=O)c1cccs1)C(=O)Oc1c[nH]c(-c2ccccc2)c1 [2-Thiophene-SO2 --R--OPP, R = Alanine] | – | – | – | – | – | K/S [2, 14]: 0.224; Change in K/S [2, 15]: 0.174; K/S [1, 16]: 0.050
